According to patent US7989464B2, “mGluR1 antagonists as therapeutic agents” (Schering Corporation, priority 2004, dated 2011):
Read-outs that look alike come from different tables or passages of the source.

Biological target: T1, hmGluR1 receptor (Homo sapiens, UniProt Q13255)
T1 construct: expressed in transfected cells
Assay: IC50 determination: intracellular calcium mobilization (FLIPR) upon Quisqualate stimulation in CHO cells stably expressing hmGluR1
Format: cell-based
Conditions: against Quisqualate 1 μM (EC80)
Summary of the method: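 CHO cells stably expressing hmGluR1 were kept overnight in DMEM high glucose with GPT and 1 mM pyruvate, then loaded 2 h with Calcium 3 dye.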

[1] = FLIPR calcium mobilization, read-out: IC50 Class
[2] = class symbols, read-out: mGIuR 1 IC50
[3] = FLIPR calcium mobilization, read-out: mGluR1 IC50

T1 sequence (Q13255 19-1194): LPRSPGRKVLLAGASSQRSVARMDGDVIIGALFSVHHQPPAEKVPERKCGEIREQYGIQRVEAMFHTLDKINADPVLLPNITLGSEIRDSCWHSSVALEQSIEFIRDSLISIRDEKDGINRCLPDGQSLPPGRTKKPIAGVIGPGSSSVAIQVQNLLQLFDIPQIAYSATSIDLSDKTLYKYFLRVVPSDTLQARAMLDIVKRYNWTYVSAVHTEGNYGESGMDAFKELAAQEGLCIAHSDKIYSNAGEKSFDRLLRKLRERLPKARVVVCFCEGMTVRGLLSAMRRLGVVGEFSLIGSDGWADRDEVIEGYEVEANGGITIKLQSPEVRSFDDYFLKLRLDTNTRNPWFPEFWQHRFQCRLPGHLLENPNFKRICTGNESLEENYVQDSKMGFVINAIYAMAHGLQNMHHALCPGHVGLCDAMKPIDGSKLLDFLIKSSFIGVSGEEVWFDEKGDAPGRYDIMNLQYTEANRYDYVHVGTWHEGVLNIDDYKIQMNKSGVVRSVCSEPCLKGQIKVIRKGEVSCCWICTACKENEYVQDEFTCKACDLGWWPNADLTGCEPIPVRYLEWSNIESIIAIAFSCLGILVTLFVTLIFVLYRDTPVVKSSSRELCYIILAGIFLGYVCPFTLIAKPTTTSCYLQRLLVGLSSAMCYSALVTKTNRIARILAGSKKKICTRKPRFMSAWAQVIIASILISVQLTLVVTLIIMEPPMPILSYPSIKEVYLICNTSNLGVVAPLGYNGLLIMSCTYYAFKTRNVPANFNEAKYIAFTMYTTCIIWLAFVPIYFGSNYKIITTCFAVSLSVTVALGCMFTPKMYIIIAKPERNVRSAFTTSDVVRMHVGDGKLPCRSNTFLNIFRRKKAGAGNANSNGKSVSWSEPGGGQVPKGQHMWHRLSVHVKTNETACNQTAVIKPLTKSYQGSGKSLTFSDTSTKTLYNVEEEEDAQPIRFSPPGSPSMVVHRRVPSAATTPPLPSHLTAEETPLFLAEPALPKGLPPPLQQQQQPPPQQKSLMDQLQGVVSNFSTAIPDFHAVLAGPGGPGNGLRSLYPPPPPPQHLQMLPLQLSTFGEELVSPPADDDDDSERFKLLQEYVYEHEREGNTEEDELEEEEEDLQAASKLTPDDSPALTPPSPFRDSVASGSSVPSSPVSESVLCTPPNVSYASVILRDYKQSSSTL

Structure (SMILES)	IC50 [1]	IC50 [2]	IC50 [3]
CC(C)Oc1ccc(-n2cnc3c(sc4nccc(N(C)C)c43)c2=O)cc1 [7AQ]	–	> 1000 nM	–
CN(C)c1ccnc2sc3c(=O)n(-c4ccc5c(c4)CC(=O)N5)cnc3c12 [7BE]	–	> 1000 nM	–
CCCCn1cnc2c(sc3nccc(N(C)C)c32)c1=O [7P]	–	50 to 150 nM	–
CN(C)c1ccnc2sc3c(=O)n(-c4ccc(I)cc4)cnc3c12 [7M]	–	> 1000 nM	–
CN(C)c1c[n+]([O-])cc2sc3c(=O)n(-c4ccc(Cl)cc4)cnc3c12 [compound 53]	–	> 1000 nM	–
Cc1nc2ccc(-n3cnc4c(sc5nccc(N(C)C)c54)c3=O)cc2[nH]1 [7BV]	–	> 1000 nM	–
COc1cc(-n2cnc3c(sc4nccc(N(C)C)c43)c2=O)cc(OC)c1OC [7AF]	–	> 1000 nM	–
O=c1c2sc3nccc(CC4CC4)c3c2ncn1-c1ccc(Cl)cc1 [compound 179]	150 to 1000 nM	–	–
Cc1ccc(-n2cnc3c(sc4nccc(N(C)C)c43)c2=O)cn1 [7DF]	–	< 50 nM	–
Cc1cc(N(C)C)c2c(n1)sc1c(=O)n(-c3ccc(Cl)cc3)cnc12 [7CM]	–	< 50 nM	–
Cc1cc(-n2cnc3c(sc4nccc(N(C)C)c43)c2=O)ccc1Br [7DR]	–	< 50 nM	1.73 nM
COc1ccnc2sc3c(=O)n(-c4ccc(F)cc4)cnc3c12 [compound 180]	150 to 1000 nM	–	–

Now from value to compound:

IC50 [1]	IC50 [2]	IC50 [3]	Structure (SMILES)
> 1000 nM	–	–	Cc1ccc(-n2cnc3c(sc4nccc(N5CCOCC5)c43)c2=O)cc1 [28CW]
< 50 nM	–	–	Cc1nc(N)c2c(n1)sc1c(=O)n(-c3ccccc3)cnc12 [95EX]
150 to 1000 nM	–	–	C#CC(C)Nc1ccnc2sc3c(=O)n(-c4ccc(OC)cc4)cnc3c12 (stereo not shown) [28FA]
< 50 nM	–	–	O=c1c2sc3ncnc(NC4CC4)c3c2ncn1-c1ccc2occc2c1 [95AV]
< 50 nM	–	–	CN(CCO)c1ccnc2sc3c(=O)n(-c4ccc(Cl)cc4)cnc3c12 [28HG]
–	> 1000 nM	–	O=c1c2sc3nccc(N4CCCCC4)c3c2ncn1C1CCCCC1 [28L]
150 to 1000 nM	–	–	CNc1ccnc2sc3c(=O)n(-c4ccncc4)cnc3c12 [28EF]
150 to 1000 nM	–	–	COc1ccc(-n2cnc3c(sc4ncnc(Nc5ccccn5)c43)c2=O)cc1 [190K]
150 to 1000 nM	–	–	COc1ccc(-n2cnc3c(sc4nccc(OC)c43)c2=O)cc1F [28FX]
< 50 nM	–	–	C=CCNc1ccnc2sc3c(=O)n(-c4ccc(F)cc4)cnc3c12 [28EC]
–	< 50 nM	–	COc1ccc(-n2cnc3c(sc4nccc(N)c43)c2=O)cc1 [72C]
–	> 1000 nM	–	CN(C)c1ccnc2sc3c(=O)n(N(c4ccccc4)c4ccccc4)cnc3c12 [60J]
–	< 50 nM	–	Cc1ccc(-n2cnc3c(sc4ncnc(N(C)C)c43)c2=O)cn1 [95O]
< 50 nM	–	0.91 nM	C#CCNc1ccnc2sc3c(=O)n(-c4ccc(Cl)cc4)cnc3c12 [28DL]
150 to 1000 nM	–	–	O=c1c2sc3nccc(Cl)c3c2ncn1-c1ccc(Cl)cc1 [57E]
> 1000 nM	–	–	COc1ccc(-n2cnc3c(sc4nccc(OC)c43)c2=O)c(C)c1 [28BL]
–	> 1000 nM	–	COc1ccc(C(=O)Nc2ccnc3sc4c(=O)n(C5CCCCC5)cnc4c23)cc1 [73F]
–	< 50 nM	–	CCNc1ccnc2sc3c(=O)n(-c4ccc5c(c4)OCO5)cnc3c12 [131E]
–	< 50 nM	–	Cc1ccc(-n2cnc3c(sc4nccc(NC[C@H](C)O)c43)c2=O)cc1 [28BB]
–	> 1000 nM	–	CN(C)c1ccnc2sc3c(=O)n(-c4cc[nH]n4)cnc3c12 [15W]
